# Test results as given in patent publication US5942494A, “Stimulation of gene expression and synthesis of heat shock protein 72/73 (HSP 70)” (The Trustees of Columbia University in the City of New York, priority 1996, dated 1999).
# Square brackets hold non-standard residues; d marks the D form. Peptide text beside a SMILES is read from it. Nle = CCCC[C@H](N)C(=O)O
# Tests used:
# Type in all cases: cell-based, human
# Hsp104 = experiment: Immunoprecipitation of Hsp104 from radiolabeled HepG2 cells; settings: HepG2, ALLN 4 hours
# Description: (§1) FIGS. 7A-7B: Effects of ALLN on the biosynthesis of other members of Hsp family and related proteins. HepG2 cells were pre-treated and radiolabeled with or without ALLN for 4 hours as described in FIG. 1. Cell lysates were used for SDS-PAGE (A), or for immunoprecipitation with anti-Hsp25, -Hsp27, -Hsp60, -Hsp70, -Hsp86, -Hsp90, -Hsp104, -Bip, or -albumin antibodies respectively (1 μg/ml) (B). Because the anti-Hsp25, -Hsp27, -Hsp60 and Hsp90 antibodies are from a rat source, rabbit anti-rat IgG antibody was added after the first incubation, and the incubation was extended for another 1 hour at 4° C. before collection with protein A-Sepharose.Immunoprecipitates were loaded for SDS-PAGE and aliquoted for scintillation counting and plotting. Each value was presented as mean ±S.D. from three individual culture dishes.
# (§2) HepG2 cells were preincubated for 4 hours in serum-free MEM and then radiolabeled with ^3 H-Leucine (150 μCi/ml) in a serum-free, leucine-free medium. […] Cell lysates containing equal amounts of trichloroacetic acid (TCA)-insoluble radioactivity were used for immunoprecipitations by incubating with individual monoclonal antibody (1 μg/ml) for 2.5 hours at 4° C. […]
# Bip = experiment: Immunoprecipitation of Bip from radiolabeled HepG2 cells; settings: HepG2, ALLN 4 hours
# Description: as §1, §2
# Hsp27 = experiment: Immunoprecipitation of Hsp27 from radiolabeled HepG2 cells; settings: HepG2, ALLN 4 hours
# Description: as §1, §2
# [1] = test system: protein of about 80-90 kDa; experiment: Whole-cell protein pattern of [3H]-leucine-labeled HepG2 lysates on SDS-PAGE; settings: ALLN-treated versus control HepG2 cells, FIG. 2A
# Source text: It was reported (Liu, et al., 1989) that in human diploid fibroblasts, heat shock treatment could induce the synthesis of several members of the Hsp family, including Hsp25, Hsp50, Hsp64, Hsp72, Hsp78, Hsp89 and Hsp98. Short, sublethal episodes of cardiac ischemia increase both Hsp70 and Hsp60 (Marber, et al., 1988). Such complex induction patterns may reflect an increased requirement for several of these Hsps, i.e., the need for several of these Hsps to increase, in order to prevent or protect pre-existing proteins from denaturation. […] It would be interesting to characterize this polypeptide and to identify its roles in the ALLN-induced cellular response.
compound,measurement,setting,value
"CCCC[C@@H](C=O)NC(=O)[C@H](CC(C)C)NC(=O)[C@H](CC(C)C)NC(C)=O [ALLN, N-acetyl-leucyl-leucyl-norleucinal] (Ac-Leu-Leu-[Nle]-aldehyde)",Effect on Hsp104,Hsp104,no effects
same,Effect on Bip,Bip,no effects
same,Effect on Hsp27,Hsp27,no effects
same,Synthesis of a protein of about 80-90 kDa,[1],also increased
